The record followed here is US20230098772A1, “ADVANCED MICROBIOME THERAPEUTICS ENGINEERED TO PRODUCE SEROTONIN IN VIVO” (DANMARKS TEKNISKE UNIVERSITET, priority 2019, published 2023).

For assay [1], the system named is mice. The assay is described as follows: Open Field Test after 21 days treatment, comparison with fluoxetine. In kind it is in vivo, mice (C57BL/6). Particulars: oN14 10^9 cells oral gavage, fluoxetine 10 mg/kg I.P. On the procedure:
9.1.3 Open Field Test: Each mouse was placed in a white, open-roof, well lite, 50 cm (length)×50 cm (width)×38 cm (height) chamber and recorded for 10 minutes following previously described methods (Spohn, S. N. et al., 2016). Mice were then placed back into their original cage. Fecal pellets produced during the 10-minute test were counted. Recordings were then post processed and analyzed using BehaviorCloud as previously described (Spohn, S. N. et al., 2016). Mouse tracking software recorded total path of movement of each mouse, total distance traveled, time spent in the inner zone defined as the […] and outer zone defined as the outer 10 cm border closest to the walls, number of times entering the inner zone, and distance traveled within the inner zone.
(§1) 10.1.1 Administration: as described for oral administration in 6.1.1, but with the following modifications: The mice were administered sterile PBS only (PBS) or freshly-grown 10^9 cells of E. coli Nissle strain designated oN14 (E. coli Nissle strain oN comprising pMUT14-ser) in sterile PBS (oN14) by oral gavage. Additionally, the mice were administered a 200 μl intraperitoneal (I.P.) injection of saline or the SSRI, fluoxetine at 10 mg/kg body weight in saline. The mice received the oral and IP administered co-treatments every 24 hrs at the same time of day for 21 days. Accordingly, the four mice treatment groups received: IP: saline/Gavage: PBS (negative control); IP: Fluoxetine/Gavage: PBS (SSRI positive comparator), IP: saline/Gavage: oN14 (oN14 positive comparator); and IP: Fluoxetine/Gavage: oN14 (positive combination comparator). 24 hours after the last administration, the mice were subjected to motility and behavioral testing.

Assay [2] has as its system mice. The assay is described as follows: Forced Swim Test after 21 days treatment, comparison with fluoxetine. The format is in vivo, mice (C57BL/6). Particulars: oN14 10^9 cells oral gavage, fluoxetine 10 mg/kg I.P. How it is done: 9.1.2 Forced Swim Test: Each mouse was placed in clear cylindrical tanks (30 cm height×20 cm) with 15 cm of water at 23-25° C. for 6 minutes and recorded, as described by Ferguson (2001). Mice were then towel dried and placed under a heat lamp to dry to prevent hypothermia and then placed back in their original cage. Recordings were de-identified and a blinded observer, scored recordings for the time spent immobile during the last 4 minutes of the 6-minute test, as described by Can et al., (2012).
as §1, with “24 hours after the last administration, the mice were subjected to motility and behavioral testing.” left out

In assay [3] the test system is 5-HT biosynthetic pathway. Nature of the assay: In vitro metabolite production by E. coli Nissle strains (LC-MS of culture media). In kind it is cell-based. Particulars: strains comprising pMUT10-5htp; vs folE WT; FIG. 5F. How it is done: Strains were grown in a modified M9 medium, containing 1× M9 salts (M6030, Sigma Aldrich), 0.2% (w/v) glucose, 0.1% (w/v) casamino acids (Cat. No. C2000, Teknova), 1 mM MgSO4, 50 μM FeCl3, 0.2% (v/v) 2YT medium (composition see below), and 50 mg/L of L-tryptophan unless stated otherwise. Kanamycin was added at a final concentration of 50 mg/L unless stated otherwise. Three single colonies were picked from each strain, grown in 300 μl medium in 96 deep-well plates and shaken at 250 rpm at 37° C. for 16 hours. The main culture was inoculated by diluting this pre-culture 1:100 into fresh medium, and cells were grown for 24 h under the same conditions. In the case of substrate feeding, TRP and 5-HTP was added to the growth medium in an amount of 100 mg TRP or 5-HTP/L. Afterwards, the culture supernatant was separated from cells using a 0.2 μm pore size filter, and frozen at −20° C. until analysis by LC-MS. […]
Detection of serotonin, tryptamine, tryptophan and 5-HTP were conducted by liquid chromatography mass spectrometry (LC-MS) measurements on a Dionex UltiMate 3000 UHPLC (Fisher Scientific, San Jose, Calif.) connected to an Orbitrap Fusion Mass Spectrometer (Thermo Fisher Scientific, San Jose, Calif.). […] Quantification of the compounds was based on calculations from calibration standards analyzed before and after sets of 24 samples. […]

Turning to `CNCCC(Oc1ccc(C(F)(F)F)cc1)c1ccccc1` (stereo not drawn) [Fluoxetine], in the assay on mice [1], the “distance travelled in the inner zone in OFT” value was “increased”, the “fecal boli produced during the OFT” value is “reduction”, the “time spent in the inner zone in OFT” value is on record as “increased” and the “total number of entries in the inner zone in OFT” value is on record as “increased”. Besides, the “time of immobility in Forced Swim Test” value with mice [2] is given as “significantly reduce”.

B1: mutant GCH1: mutant GTP cyclohydrolase I with T198I substitution encoded by mutated folE gene (protein, UniProt P0A6T5 2-222, looked up, variant T198I)
GTP cyclohydrolase 1: PSLSKEAALVHEALVARGLETPLRPPVHEMDNETRKSLIAGHMTEIMQLLNLDLADDSLMETPHRIAKMYVDEIFSGLDYANFPKITLIENKMKVDEMVTVRDITLTSTCEHHFVTIDGKATVAYIPKDSVIGLSKINRIVQFFAQRPQVQERLTQQILIALQTLLGTNNVAVSIDAVHYCVKARGIRDATSATTTISLGGLFKSSQNTRHEFLRAVRHHN
B1: in assay [3], the “increase of hydroxylation of tryptophan to 5-hydroxytryptophan catalyzed by human tryptophan 5-hydroxylase” value was found to be 4 fold.
